Reference: US20050165029A1, “Pyrrolopyrimidine derivatives and analogs and their use in the treatment and prevention of diseases” (Ambit Biosciences Corporation, priority 2004, published 2005)

How the values were obtained:
PDGFR-β = target: T1, PDGFR-β (Homo sapiens, UniProt P09619); assay: PDGFR-β (DKIN) phage-display competitive binding assay
T1 construct: made in house; host or cells: T7 bacteriophage display
Description: (§1) Described in the exemplary assays below is data from binding with varying kinases. […] The term “ND” represents non-determined values.
Kd values for the interactions between PDGFR-β and candidate small molecule ligands were measured by a phage-display-based competitive binding assay that is described in detail in U.S. Ser. No. 10/406,797 filed 2 Apr. 2003 and incorporated herein by reference, Briefly, T7 phage displaying human PDGFR-β were incubated with an affinity matrix coated with known PDGFR-β inhibitor in the presence of various concentrations of the soluble competitor molecules. […] The Kd for the interaction between the soluble competitor molecule and PDGFR-β is equal to the concentration of soluble competitor molecule that causes a 50% reduction in the number of phage recovered in the eluate compared to a control sample lacking soluble competitor. Since this assay is generic, and any molecule can be used as a soluble competitor, we have determined Kd values for the interaction between PDGFR-β and several small molecules, including those shown below.

FLT3 = target: T2, FLT3 (Homo sapiens, UniProt P36888); assay: FLT3(DKIN) phage-display competitive binding assay
T2 construct: made in house; host or cells: T7 bacteriophage display
T2 sequence (P36888 27-993): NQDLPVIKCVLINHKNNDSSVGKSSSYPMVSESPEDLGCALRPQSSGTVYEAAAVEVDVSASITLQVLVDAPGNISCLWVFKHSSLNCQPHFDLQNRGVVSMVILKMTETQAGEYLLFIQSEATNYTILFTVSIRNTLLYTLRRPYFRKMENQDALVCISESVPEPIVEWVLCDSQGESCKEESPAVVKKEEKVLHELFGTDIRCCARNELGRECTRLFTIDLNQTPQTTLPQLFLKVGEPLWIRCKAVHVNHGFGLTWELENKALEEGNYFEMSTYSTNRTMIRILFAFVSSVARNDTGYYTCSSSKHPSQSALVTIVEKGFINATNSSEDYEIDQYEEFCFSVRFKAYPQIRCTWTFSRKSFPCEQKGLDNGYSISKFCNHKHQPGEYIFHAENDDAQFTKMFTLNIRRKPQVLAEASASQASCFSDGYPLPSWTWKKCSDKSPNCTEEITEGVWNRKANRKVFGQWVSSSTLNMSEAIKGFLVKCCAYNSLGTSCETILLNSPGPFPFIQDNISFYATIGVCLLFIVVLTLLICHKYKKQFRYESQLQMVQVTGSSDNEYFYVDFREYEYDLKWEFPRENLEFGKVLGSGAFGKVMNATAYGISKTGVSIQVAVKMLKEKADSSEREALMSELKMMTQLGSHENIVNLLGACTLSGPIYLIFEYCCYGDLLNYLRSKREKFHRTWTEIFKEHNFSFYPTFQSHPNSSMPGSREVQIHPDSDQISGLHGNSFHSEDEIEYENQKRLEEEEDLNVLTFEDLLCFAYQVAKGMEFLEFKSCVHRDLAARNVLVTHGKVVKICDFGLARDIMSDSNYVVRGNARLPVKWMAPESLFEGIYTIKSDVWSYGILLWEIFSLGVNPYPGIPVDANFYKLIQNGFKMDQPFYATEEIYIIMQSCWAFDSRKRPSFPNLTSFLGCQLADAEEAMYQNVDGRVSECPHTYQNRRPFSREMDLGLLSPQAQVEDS
Source text: (§2) Methods for measuring binding affinities for interactions between small molecules and kinases including FLT3, c-KIT, ABL(T334I) [a.k.a. ABL(T315I)], VEGFR-2 (a.k.a. KDR), and EGFR are described in detail in U.S. application Ser. No. 10/873,835, which is incorporated by reference herein in its entirety. The components of the assays include human kinases expressed as fusions to T7 bacteriophage particles and immobilized ligands that bind to the ATP site of the kinases. […] If the test compound binds the kinase it competes with the immobilized ligand and prevents binding to the solid support. […] The results are read out by quantitating the amount of fusion protein bound to the solid support, which is accomplished by either traditional phage plaque assays or by quantitative PCR (qPCR) using the phage genome as a template. […] The concentration of test molecule that reduces the number of phage bound to the solid support by 50% is equal to the Kd for the interaction between the kinase and the test molecule. Typically, data are collected for twelve concentrations of test compound and, the resultant binding curve is fit to a non-cooperative binding isotherm to calculate Kd.
as §1

VEGFR2 = target: T3, VEGFR2 (Homo sapiens, UniProt P35968); assay: VEGFR2(DKIN) phage-display competitive binding assay
T3 construct: made in house; host or cells: T7 bacteriophage display
T3 sequence (P35968 20-1356): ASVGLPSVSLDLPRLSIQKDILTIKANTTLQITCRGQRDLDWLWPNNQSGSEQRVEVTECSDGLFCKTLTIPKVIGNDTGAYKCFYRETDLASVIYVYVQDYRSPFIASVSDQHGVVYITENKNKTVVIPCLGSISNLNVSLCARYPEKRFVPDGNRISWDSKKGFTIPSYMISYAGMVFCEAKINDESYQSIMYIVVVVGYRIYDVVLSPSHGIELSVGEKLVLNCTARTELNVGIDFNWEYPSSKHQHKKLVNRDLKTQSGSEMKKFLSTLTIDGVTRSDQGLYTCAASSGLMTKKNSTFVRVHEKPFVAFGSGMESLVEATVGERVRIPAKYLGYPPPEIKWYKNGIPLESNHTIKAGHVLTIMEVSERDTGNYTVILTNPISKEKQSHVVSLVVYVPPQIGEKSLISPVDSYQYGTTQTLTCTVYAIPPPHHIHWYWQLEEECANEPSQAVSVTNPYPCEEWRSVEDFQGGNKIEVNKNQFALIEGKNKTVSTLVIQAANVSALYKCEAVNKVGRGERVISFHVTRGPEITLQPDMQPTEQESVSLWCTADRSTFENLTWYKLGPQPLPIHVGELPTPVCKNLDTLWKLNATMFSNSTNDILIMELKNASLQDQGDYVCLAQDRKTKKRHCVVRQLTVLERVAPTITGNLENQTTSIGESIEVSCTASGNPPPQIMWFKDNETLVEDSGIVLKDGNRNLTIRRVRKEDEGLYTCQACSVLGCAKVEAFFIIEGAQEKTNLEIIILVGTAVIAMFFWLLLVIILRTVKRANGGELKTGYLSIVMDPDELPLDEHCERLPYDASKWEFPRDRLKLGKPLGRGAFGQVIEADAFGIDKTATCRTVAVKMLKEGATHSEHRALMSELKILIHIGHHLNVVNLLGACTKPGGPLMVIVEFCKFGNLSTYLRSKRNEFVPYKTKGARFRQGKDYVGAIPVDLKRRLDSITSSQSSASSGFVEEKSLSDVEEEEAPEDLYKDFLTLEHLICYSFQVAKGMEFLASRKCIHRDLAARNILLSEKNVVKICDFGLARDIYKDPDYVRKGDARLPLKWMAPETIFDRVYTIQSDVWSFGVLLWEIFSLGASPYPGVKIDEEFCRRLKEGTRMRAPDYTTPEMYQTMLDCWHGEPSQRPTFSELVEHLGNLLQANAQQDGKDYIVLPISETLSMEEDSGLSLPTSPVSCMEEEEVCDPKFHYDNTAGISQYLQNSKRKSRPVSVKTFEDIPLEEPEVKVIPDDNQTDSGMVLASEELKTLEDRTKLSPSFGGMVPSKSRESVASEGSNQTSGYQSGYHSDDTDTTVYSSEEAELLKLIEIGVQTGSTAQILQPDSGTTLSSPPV
Source text: as §2, §1

ABL1 = target: T4, ABL1 (Homo sapiens, UniProt P00519); assay: ABL1 phage-display competitive binding assay
T4 construct: made in house; host or cells: T7 bacteriophage display
T4 sequence (P00519 whole entry): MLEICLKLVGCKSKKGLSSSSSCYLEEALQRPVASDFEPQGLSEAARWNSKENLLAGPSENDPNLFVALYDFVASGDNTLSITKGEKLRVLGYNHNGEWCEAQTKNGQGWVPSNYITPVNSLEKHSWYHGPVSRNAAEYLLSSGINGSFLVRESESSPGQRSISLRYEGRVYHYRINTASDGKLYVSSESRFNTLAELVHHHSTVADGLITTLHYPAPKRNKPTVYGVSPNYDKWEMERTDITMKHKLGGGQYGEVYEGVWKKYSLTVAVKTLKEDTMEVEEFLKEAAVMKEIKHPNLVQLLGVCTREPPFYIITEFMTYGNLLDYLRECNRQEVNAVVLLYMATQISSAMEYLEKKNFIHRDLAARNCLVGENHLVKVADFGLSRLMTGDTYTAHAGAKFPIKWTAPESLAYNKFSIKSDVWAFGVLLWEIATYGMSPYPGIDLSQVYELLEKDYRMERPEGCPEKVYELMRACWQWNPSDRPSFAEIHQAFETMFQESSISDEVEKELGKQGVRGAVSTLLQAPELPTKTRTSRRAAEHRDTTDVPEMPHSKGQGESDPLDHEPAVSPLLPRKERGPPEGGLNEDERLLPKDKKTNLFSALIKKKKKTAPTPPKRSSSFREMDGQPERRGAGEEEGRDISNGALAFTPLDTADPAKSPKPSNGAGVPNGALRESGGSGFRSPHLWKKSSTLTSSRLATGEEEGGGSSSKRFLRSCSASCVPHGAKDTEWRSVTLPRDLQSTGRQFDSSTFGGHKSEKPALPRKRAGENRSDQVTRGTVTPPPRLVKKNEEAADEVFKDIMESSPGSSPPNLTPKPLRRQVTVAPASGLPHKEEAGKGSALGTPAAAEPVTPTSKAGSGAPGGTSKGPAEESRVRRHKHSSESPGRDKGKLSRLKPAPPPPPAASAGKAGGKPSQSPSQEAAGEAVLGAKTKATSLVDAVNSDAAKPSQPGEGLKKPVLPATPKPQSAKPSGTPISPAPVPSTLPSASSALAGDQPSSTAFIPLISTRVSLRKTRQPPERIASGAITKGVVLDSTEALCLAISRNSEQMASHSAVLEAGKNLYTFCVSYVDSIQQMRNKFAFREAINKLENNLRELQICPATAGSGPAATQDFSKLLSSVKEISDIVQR
Source text: as §2, §1

MV4,11 cells = assay: FLT3 assay using MV4,11 cells (cell proliferation, MTS); format: cell-based; conditions: Homo sapiens, MV 4,11 cells, 0.5% serum, read-out: (MV 4,11) Cell Proliferation Assay with 0.5% Serum IC50 (nM) “CS0001”
Description: The ability of FLT3 kinase inhibitors to inhibit cellular proliferation was also examined. MV4:11 was a cell line derived from a patient with acute myelogenous leukemia. It expressed a mutant FLT3 protein that was constitutively active. […] Inhibition of FLT3 kinase activity prevented proliferation of these cells, and thus the MV4:11 cell line can be used a model for cellular activity of small molecule inhibitors of FLT3.
FLT3 assay using MV4,11 cells
MV4,11 cells were grown in an incubator @ 37° C. in 5% CO2 in Medium 2 (RPMI, 10% FBS, 4 mM glutamine, Penn/Strep). The cells were counted daily and the cell density was kept between 1e5 and 8e5 cells/ml.
Day One: Enough cells were harvested for experiments to be conducted in 50 ml conical tubes. The harvested cells were spun at 500 g for 5 min at 4° C., the supernatant was then aspirated and the cells were resuspended in the starting volume of 1×PBS. The cells were again spun at 500 g for 5 min at 4° C. and the supernatant again aspirated. […]
Day Two: The cells were counted and enough medium 3 was added to decrease density to 2e5 cells/ml. 50 ul (10,000 cells) was aliquoted into each well of a 96 well optical plate using multichannel pipetman. The compound plate was then set up by aliquoting 3 μl of negative control (DMSO) into column 1 of a 96 well 300 ul polypropylene plate, aliquoting 3 μl of positive control (10 mM AB20121) into column 12 of plate, and aliquoting 3 μl of appropriate compounds from serial dilutions into columns 2-11. To each well, 150 μl of Medium 3 was added and 50 μl of compound/medium mixture from compound plate into rows of optical plate in duplicate. The cells were then incubated at @ 37° C. in 5% CO2 for 3 days.
Day Five: MTS was thawed in a H2O bath. 20 μl of MTS was added to each well of optical plate and the cells were incubated @ 37° C. in 5% CO2 for 2 hours. The plate was then placed on a plate shaker for 30 seconds on high speed.

[1] = target: T5, inactive form of KIT, which contains the autoinhibitory juxtamembrane domain (Homo sapiens, UniProt P10721); assay: KIT (DKIN) Binding Assay; conditions: inactive form of KIT with autoinhibitory juxtamembrane domain
T5 construct: made in house; host or cells: T7 bacteriophage display
T5 sequence (P10721 546-976 limits assumed): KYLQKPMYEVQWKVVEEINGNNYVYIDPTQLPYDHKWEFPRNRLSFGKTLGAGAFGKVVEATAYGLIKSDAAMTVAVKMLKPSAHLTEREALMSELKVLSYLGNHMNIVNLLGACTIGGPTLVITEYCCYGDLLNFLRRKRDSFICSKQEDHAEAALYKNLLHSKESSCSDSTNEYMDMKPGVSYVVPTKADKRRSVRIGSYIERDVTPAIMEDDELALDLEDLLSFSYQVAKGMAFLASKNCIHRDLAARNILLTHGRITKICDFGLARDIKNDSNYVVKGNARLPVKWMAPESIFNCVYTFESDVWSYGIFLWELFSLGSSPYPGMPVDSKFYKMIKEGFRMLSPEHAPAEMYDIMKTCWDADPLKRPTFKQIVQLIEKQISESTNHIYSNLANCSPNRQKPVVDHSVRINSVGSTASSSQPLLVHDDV
Source text: as §2, §1

T1 sequence (P09619 33-1106): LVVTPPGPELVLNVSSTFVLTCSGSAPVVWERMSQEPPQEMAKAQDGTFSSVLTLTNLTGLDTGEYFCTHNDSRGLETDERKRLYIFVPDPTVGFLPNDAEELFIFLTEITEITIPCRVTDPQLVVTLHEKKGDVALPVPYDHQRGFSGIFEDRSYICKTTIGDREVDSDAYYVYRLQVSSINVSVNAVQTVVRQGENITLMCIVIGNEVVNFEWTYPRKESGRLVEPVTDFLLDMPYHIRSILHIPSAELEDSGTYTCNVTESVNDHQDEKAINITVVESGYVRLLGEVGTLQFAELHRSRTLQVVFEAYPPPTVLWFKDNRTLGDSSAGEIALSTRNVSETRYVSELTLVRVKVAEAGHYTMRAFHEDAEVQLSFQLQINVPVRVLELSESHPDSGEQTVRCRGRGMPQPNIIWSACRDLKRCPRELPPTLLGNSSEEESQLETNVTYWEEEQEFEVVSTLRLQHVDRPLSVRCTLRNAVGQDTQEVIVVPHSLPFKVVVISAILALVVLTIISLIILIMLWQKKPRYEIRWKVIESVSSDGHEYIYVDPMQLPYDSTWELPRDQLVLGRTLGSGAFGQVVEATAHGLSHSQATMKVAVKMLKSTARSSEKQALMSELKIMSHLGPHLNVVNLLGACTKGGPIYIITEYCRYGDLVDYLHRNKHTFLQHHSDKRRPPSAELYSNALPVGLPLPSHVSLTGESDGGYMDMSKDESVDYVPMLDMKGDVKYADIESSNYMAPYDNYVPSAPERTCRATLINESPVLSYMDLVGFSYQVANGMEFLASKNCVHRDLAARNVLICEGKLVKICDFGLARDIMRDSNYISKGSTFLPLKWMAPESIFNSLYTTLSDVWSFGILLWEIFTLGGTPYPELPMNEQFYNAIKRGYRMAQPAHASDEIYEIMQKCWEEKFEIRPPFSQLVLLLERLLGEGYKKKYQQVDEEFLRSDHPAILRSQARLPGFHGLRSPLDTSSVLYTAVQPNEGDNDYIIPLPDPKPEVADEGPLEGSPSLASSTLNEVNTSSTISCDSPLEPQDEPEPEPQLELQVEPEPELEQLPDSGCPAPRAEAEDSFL

Row | Structure (SMILES) | Kd (PDGFR-β) [nM] | Kd (FLT3) [nM] | other results
1 | COc1ccc(-c2cc3c(Oc4cccc(OC)c4)ncnc3[nH]2)cc1 [Compound D7] | 100 to 1000 | – | –
2 | COc1ccc(-c2cc3c(Oc4cccc(C)c4)ncnc3[nH]2)cc1 [Compound D8] | 1000 to 10000 | – | –
3 | COc1ccc(-c2cc3c(Oc4ccc(Cl)cc4)ncnc3[nH]2)cc1 [Compound D11] | 100 to 1000 | – | –
4 | COc1ccc(-c2cc3c(Oc4ccc(F)cc4)ncnc3[nH]2)cc1 [Compound D13] | 100 to 1000 | 100 to 1000 | –
5 | COc1ccc(-c2cc3c(Oc4ccc(C)cc4)ncnc3[nH]2)cc1 [Compound D14] | 1000 to 10000 | 1000 to 10000 | –
6 | COc1cccc(-c2cc3c(Oc4ccc(Cl)cc4)ncnc3[nH]2)c1 [Compound D22] | 100 to 1000 | – | –
7 | COc1cccc(-c2cc3c(Oc4ccccc4)ncnc3[nH]2)c1 [Compound D24] | 1000 to 10000 | 100 to 1000 | –
8 | COc1cccc(Oc2ncnc3[nH]c(-c4ccc(O)cc4)cc23)c1 [Compound E4] | – | – | Kd (VEGFR2): 1000 to 10000 nM
9 | Clc1ccccc1Sc1ncnc2[nH]ccc12 [Compound F1, 4-(2-Chloro-phenylsulfanyl)-7H-pyrrolo[2,3-d]pyrimidine] | – | > 10000 | –
10 | COc1ccc(-c2cc3c(Sc4ccc(Cl)c(Cl)c4)ncnc3[nH]2)cc1 [Compound J3] | – | – | Kd (ABL1): < 100 nM
11 | COc1ccc(-c2cc3c(Sc4cc(C)cc(C)c4)ncnc3[nH]2)cc1 [Compound J5] | – | > 10000 | IC50 (MV4,11 cells): < 100 nM
12 | COc1ccc(-c2cc3c(Sc4cccc(OC)c4)ncnc3[nH]2)cc1 [Compound J9] | – | – | Kd (ABL1): 100 to 1000 nM
13 | COc1ccc(-c2cc3c(Sc4ccc(Cl)cc4)ncnc3[nH]2)cc1 [Compound J12] | 1000 to 10000 | – | –
14 | COc1ccc(-c2cc3c(Sc4ccc(C)cc4)ncnc3[nH]2)cc1 [Compound J14] | 100 to 1000 | – | Kd (VEGFR2): 100 to 1000 nM
15 | COc1ccc(-c2cc3c(Sc4ccccc4)ncnc3[nH]2)cc1 [Compound J16] | 100 to 1000 | 100 to 1000 | Kd [1]: 1000 to 10000 nM; IC50 (MV4,11 cells): < 100 nM
16 | Cc1ccc(-c2cc3c(Sc4cccc(F)c4)ncnc3[nH]2)cc1 [Compound J17] | – | – | Kd (ABL1): 1000 to 10000 nM
17 | Cc1cc(C)cc(Sc2ncnc3[nH]c(-c4ccc(O)cc4)cc23)c1 [Compound J18] | – | – | Kd (ABL1): 1000 to 10000 nM

Row | Structure (SMILES) | Kd (PDGFR-β) [nM] | Kd (FLT3) [nM] | other results
18 | COc1cccc(Sc2ncnc3[nH]c(-c4cccc(OC)c4)cc23)c1 [Compound J26] | – | – | Kd (ABL1): 100 to 1000 nM
19 | COc1ccc(-c2cc3c(Sc4ccc(F)c(Cl)c4)ncnc3[nH]2)cc1 [Compound J37] | 100 to 1000 | 100 to 1000 | IC50 (MV4,11 cells): 100 to 1000 nM
20 | Clc1ccc(Sc2ncnc3c2[nH]c2ccccc23)cc1Cl [Compound K5] | – | – | IC50 (MV4,11 cells): > 10000 nM
21 | COc1cccc(Sc2ncnc3[nH]c(-c4ccc(O)cc4)cc23)c1 [Compound L4] | – | – | Kd (ABL1): 100 to 1000 nM; Kd (VEGFR2): 100 to 1000 nM
22 | Cc1cccc(Sc2ncnc3[nH]c(-c4ccc(O)cc4)cc23)c1 [Compound L5] | – | – | Kd (VEGFR2): > 10000 nM
23 | Oc1ccc(-c2cc3c(Sc4ccc(Cl)cc4)ncnc3[nH]2)cc1 [Compound L7] | – | – | Kd (VEGFR2): 1000 to 10000 nM
24 | Oc1ccc(-c2cc3c(Sc4ccc(F)cc4)ncnc3[nH]2)cc1 [Compound L8] | – | – | Kd (VEGFR2): > 10000 nM
25 | Cc1ccc(Sc2ncnc3[nH]c(-c4ccc(O)cc4)cc23)cc1 [Compound L9] | 1000 to 10000 | 100 to 1000 | Kd (ABL1): 100 to 1000 nM; Kd (VEGFR2): 100 to 1000 nM
26 | Oc1ccc(-c2cc3c(Sc4ccccc4)ncnc3[nH]2)cc1 [Compound L10] | – | – | Kd (VEGFR2): > 10000 nM
27 | COc1ccc(-c2cc3c(Sc4ccccc4)ncnc3n2C)cc1 [Compound O7] | – | 100 to 1000 | –
28 | CCOc1ccc(-c2cc3c(Sc4ccccc4)ncnc3n2CC)cc1 [Compound O8] | – | 100 to 1000 | –
29 | CC(C)Oc1ccc(-c2cc3c(Sc4ccccc4)ncnc3n2C(C)C)cc1 [Compound O9] | – | 100 to 1000 | –
30 | COc1ccc(-c2cc3c(Sc4ccccc4)ncnc3n2C(C)C)cc1 [Compound O10] | – | 100 to 1000 | –
31 | COc1ccc(-c2cc3c(Sc4ccc(C)cc4)ncnc3n2C)cc1 [Compound O11] | – | 100 to 1000 | –
32 | CCOc1ccc(-c2cc3c(Sc4ccc(C)cc4)ncnc3n2CC)cc1 [Compound O12] | – | 100 to 1000 | –
33 | Cc1ccc(Sc2ncnc3c2cc(-c2ccc(OC(C)C)cc2)n3C(C)C)cc1 [Compound O13] | – | 1000 to 10000 | –
34 | COc1ccc(-c2cc3c(Sc4ccc(C)cc4)ncnc3n2C(C)C)cc1 [Compound O14] | – | 1000 to 10000 | –
